Experimental data published in US20240424012A1, “COMBINATIONS AND USES THEREOF” (Incyte Corporation, priority 2011, published 2024).
Where “and” joins values, the source holds several entries; their conditions need not be identical. Equal values may be shown once.

Legend:
MEC-1 cells = assay: ADCC / cytotoxicity assay: killing of MEC-1 cells by MOR208 and fludarabine alone and in combination; format: cell-based, human; details: for normalized specific killing: background subtracted, combination set to 1, Fludarabine 18 μg/ml, MOR208 66 pM; for % dead cells: raw data, MOR208 66 pm, FLU 18 μg/ml, 72 h pre-incubation, E:T 30:1, 4 h
[1] = tested on: RAMOS human Burkitt's lymphoma cells; assay: Subcutaneously (SC)-implanted human Ramos Burkitt's B-cell lymphoma tumor growth model; format: in vivo, SCID mice; details: for Increased time to 4000 mg [%] / Reduced tumor growth at study Day 38 (%): control 0; for Tumor Volume at study day 38, Average: vehicle average 4014
[2] = tested on: RAMOS human lymphoma cells; format: in vivo, SCID mice; details: MOR208 3 mg/kg i.v. twice weekly for 3 weeks; FLU 125 mg/kg i.p. once daily Day 0-5; combination of both; vehicle 18.5
Human CD19 = biological target: T1, Human CD19 (human, UniProt P15391 20-556); assay: cell-based or functional assay
T1 sequence: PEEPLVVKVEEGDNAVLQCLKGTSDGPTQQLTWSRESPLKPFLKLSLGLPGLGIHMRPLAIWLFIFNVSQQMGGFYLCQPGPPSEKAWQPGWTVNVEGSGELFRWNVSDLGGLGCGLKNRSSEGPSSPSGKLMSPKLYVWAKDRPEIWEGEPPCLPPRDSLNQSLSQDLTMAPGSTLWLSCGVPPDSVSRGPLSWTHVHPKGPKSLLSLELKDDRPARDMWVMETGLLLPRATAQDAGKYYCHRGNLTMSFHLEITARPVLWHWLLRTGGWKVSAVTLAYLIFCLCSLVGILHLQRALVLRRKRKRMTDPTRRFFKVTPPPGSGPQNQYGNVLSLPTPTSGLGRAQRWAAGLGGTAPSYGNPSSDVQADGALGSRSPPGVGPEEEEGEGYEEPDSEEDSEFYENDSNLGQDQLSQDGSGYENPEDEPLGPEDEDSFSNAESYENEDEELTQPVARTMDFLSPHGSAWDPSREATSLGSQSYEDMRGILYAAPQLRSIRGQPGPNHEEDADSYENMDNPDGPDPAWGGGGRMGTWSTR

[3] = Experiment 1 (PBMC donor 1), control RefMab33
[4] = Experiment 2 (PBMC donor 2), control RefMab33
[5] = Experiment 3 (PBMC donor 3), control PBMCs alone
[6] = MOR208 10 mg/kg, FLU 125 mg/kg, combination of MOR208 and FLU 125
[7] = MOR208 10 mg/kg, Fludarabine 125 mg/kg IP Q1Dx5, combination MOR208/FLU 125
[8] = MOR208 10 mg/kg, Fludarabine 125 mg/kg, MOR208 + FLU 125 combination

| Molecule | normalized specific killing (MEC-1 cells; Average of Experiments 1-3) | % dead cells (MEC-1 cells; [3]) | normalized specific killing (MEC-1 cells; Experiment 1) | % dead cells (MEC-1 cells; [4]) | normalized specific killing (MEC-1 cells; Experiment 2) | % dead cells (MEC-1 cells; [5]) | normalized specific killing (MEC-1 cells; Experiment 3) | Increased time to 4000 mg [%] [1, 6] | Reduced tumor growth at study Day 38 (%) [1, 6] | Tumor Volume at study day 38, Average [1, 7] | Increased time to 4000 mg [%], normalized to Fractional Product combination = 1 [1, 8] | Reduced tumor growth at study Day 38 (%), normalized to Fractional Product combination = 1 [1, 8] | Median Survival Time [2] | further results |
| --- | --- | --- | --- | --- | --- | --- | --- | --- | --- | --- | --- | --- | --- | --- |
| Fludarabine [reference compound] | 0.7 | 36.39% | 0.6 | 38.48% | 0.7 | 57.27% | 0.8 | 22.37% | 48.3% | 2073 mm^3 | 0.62 | 0.75 | 22 days | EC50 (MEC-1 cell killing) (MEC-1 cells; FLU, test concentration stated to be near or at the EC50): ~18 µg/mL; Increased time to 4000 mg [%] ([1]; FLU 250 mg/kg): 30.19%; Reduced tumor growth at study Day 38 (%) ([1]; FLU 250 mg/kg): 64.8%; Increased time to 4000 mg [%], normalized to Fractional Product combination = 1 ([1]; Fludarabine 250 mg/kg): 0.8; Reduced tumor growth at study Day 38 (%), normalized to Fractional Product combination = 1 ([1]; Fludarabine 250 mg/kg): 0.9; Tumor Volume at study day 38, Average ([1]; Fludarabine 250 mg/kg IP Q1Dx5): 1413 mm^3 |
| MOR208: anti-CD19 antibody; variable domains in FIG. 3, Fc regions in FIG. 4 (antibody) heavy: EVQLVESGGGLVKPGGSLKLSCAASGYTFTSYVMHWVRQAPGKGLEWIGYINPYNDGTKYNEKFQGRVTISSDKSISTAYMELSSLRSEDTAMYYCARGTYYYGTRVFDYWGQGTLVTVSSASTKGPSVFPLAPSSKSTSGGTAALGCLVKDYFPEPVTVSWNSGALTSGVHTFPAVLQSSGLYSLSSWTVPSSSLGTQTYICNVNHKPSNTKVDKKVEPKSCDKTHTCPPCPAPELLGGPDVFLFPPKPKDTLMISRTPEVTCVVVDVSHEDPEVQFNWYVDGVEVHNAKTKPREEQFNSTFRVVSVLTVVHQDWLNGKEYKCKVSNKALPAPEEKTISKTKGQPREPQVYTLPPSREEMTKNQVSLTCLVKGFYPSDIAVEWESNGQPENNYKTTPPMLDSDGSFFLYSKLTVDKSRWQQGNVFSCSVMHEALHNHYTQKSLSLSPGK light: DIVMTQSPATLSLSPGERATLSCRSSKSLQNVNGNTYLYWFQQKPGQSPQLLIYRMSNLNSGVPDRFSGSGSGTEFTLTISSLEPEDFAVYYCMQHLEYPITFGAGTKLEIKRTVAAPSVFIFPPSDEQLKSGTASVVCLLNNFYPREAKVQWKVDNALQSGNSQESVTEQDSKDSTYSLSSTLTLSKADYEKHKVYACEVTHQGLSSPVTKSFNRGEC | 0.5 | 35.2% | 0.6 | 29.8% | 0.4 | 47.01% | 0.5 | 17.52% | 38.5% | 2468 mm^3 | 0.48 | 0.57 | 23.5 days | Tumor Volume at study day 38 ([1]; single values (Group 1-8), MOR208 10 mg/kg, Fludarabine 125 mg/kg IP Q1Dx5, combination MOR208/FLU 125): 1764 mm^3 and 1862 mm^3 and 3402 mm^3 and 2560 mm^3 and 2816 mm^3 and 2138 mm^3 and 2025 mm^3 and 3179 mm^3 |
| MOR208 (antibody, human IgG1, kappa, V domains shown) VH: EVQLVESGGGLVKPGGSLKLSCAASGYTFTSYVMHWVRQAPGKGLEWIGYINPYNDGTKYNEKFQGRVTISSDKSISTAYMELSSLRSEDTAMYYCARGTYYYGTRVFDYWGQGTLVTVSS VL: DIVMTQSPATLSLSPGERATLSCRSSKSLQNVNGNTYLYWFQQKPGQSPQLLIYRMSNLNSGVPDRFSGSGSGTEFTLTISSLEPEDFAVYYCMQHLEYPITFGAGTKLEIKR | – | – | – | – | – | – | – | – | – | – | – | – | – | EC50 of MEC-1 cell killing (ADCC) (Human CD19): ~0.066 nM |
